Assay [1] can be described thus: Evaluated for its effect in the cat cardioaccelerator nerve assay at the dose of 0.0013 umol/kg. The assay is classed as functional. The conditions noted are these: Felis catus.
Assay [2] in a line: Evaluated for its effect in the cat cardioaccelerator nerve assay at the dose of 300 ug/kg. The assay is classed as functional. The conditions noted are these: Felis catus.

One may read the inhibition in vivo as the change of the read-out against control, counted positive when it falls. The low end stands for a weak effect, the high end for a strong effect.

In assay [1], `CCCN1CCC[C@H]2c3cc(O)c(O)cc3CC[C@@H]21` came in with an inhibition in vivo at 0.0013 µmol/kg of 50%. For the compound `CCCN1CCC[C@H]2c3cc(OC)c(O)cc3CC[C@@H]21`, the inhibition in vivo at 0.3 mg/kg in assay [2] is 50%.

(Values after ChEMBL document CHEMBL1124848, “Monomethyl ether derivatives of 7,8-dihydroxy- and 8,9-dihydroxy-4-n-propyl-1,2,3,4,4a,5,6,10b-octahydrobenzo[f]quinolines as possible products of metabolism by catechol-O-methyltransferase” (1990).)
